Publication PMC10724690, “Deciphering specificity and cross-reactivity in tachykinin NK1 and NK2 receptors” (The Journal of Biological Chemistry, 2023)
Where no end group is shown, it is not given here.

Key:
NK2R [1] = target: T1, NK2R (Homo sapiens, UniProt P21452); test: IP3 (IP accumulation) assay, wildtype NK2R; type: cell-based; settings: for Emax: Fig 3a, alanine scan of NKA, dose response, IP accumulation ([3H]inositol, SPA) in transfected COS7 cells, 10 mM LiCl, 150 min 37 °C, four-parameter fit
T1 construct: host or cells: COS7
T1 sequence (P21452 1-398): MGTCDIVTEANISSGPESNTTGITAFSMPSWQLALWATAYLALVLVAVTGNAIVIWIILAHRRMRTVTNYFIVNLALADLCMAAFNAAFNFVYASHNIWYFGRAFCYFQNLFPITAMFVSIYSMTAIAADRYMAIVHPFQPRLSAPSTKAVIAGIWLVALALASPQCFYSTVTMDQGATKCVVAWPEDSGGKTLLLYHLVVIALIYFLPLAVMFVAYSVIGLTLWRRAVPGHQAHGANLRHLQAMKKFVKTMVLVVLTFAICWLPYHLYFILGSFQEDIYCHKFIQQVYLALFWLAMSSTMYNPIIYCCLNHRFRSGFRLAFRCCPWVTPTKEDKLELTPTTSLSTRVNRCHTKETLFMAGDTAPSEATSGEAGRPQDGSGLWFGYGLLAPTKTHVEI
Experimental: (§1) COS7 cells (derived from African green monkey kidney fibroblast and originally bought from ThermoFisher) were maintained in Dulbecco´s Modified Eagle´s Medium 1885 with GlutaMAX supplemented with 10% fetal bovine serum (Sigma-Aldrich), 100 units/ml penicillin and 100 μg/ml streptomycin at 37 °C with 10% CO2. COS7 cells were plated in either clear-, white-, or white with clear bottom 96-well plates that were coated with poly-D-lysine (Sigma-Aldrich) 30 min prior to cell seeding (20.000 cells/well). The following day plates were transiently transfected using calcium precipitation with 200 ng/well DNA in a culture medium with the addition of 100 μM (final concentration) Chloroquine. Transfection was stopped 5 h later with the addition of a fresh maintenance medium. Fig. […] COS7 cells seeded in clear 96-well plates were incubated with 0.5 μCi/ml myo [3H]inositol (PerkinElmer) in 100 μl growth medium over night following the transfection. The subsequent day cells were washed twice with 200 μl/well HBSS (GIBCO, Life Technologies) and pre-incubated for 5 min at 37 °C with 100 μl/well HBSS buffer supplemented with 10 mM LiCl. Ligand addition was followed by 150 min incubation at 37 °C. To stop ligand incubation, cells were lysed with 40 μl 10 mM formic acid followed by 30 min incubation on ice. 35 μl of the lysate was transferred to white 96-well plates together with 60 μl of 1:8 diluted YSi SPA scintillation beads (PerkinElmer). Plates were sealed and vigorously shaken for 15 min followed by 5 min centrifugation at 1500 rpm. Measurements (scintillation) were recorded on a Microbeta (PerkinElmer) after a 4 h delay and determinations were made in duplicates. All dose-response curves have been calculated using Prism 10 software (GraphPad Software) non-linear regression with four parameters. All data are shown as mean ± SEM unless stated otherwise and consist of two technical replicates from three biological replicates.

NK1R [2] = target: T2, NK1R (Homo sapiens, UniProt P25103); test: BRET-based cAMP assay, wildtype NK1R; type: cell-based; settings: COS-7, Fig 7d, NK1R WT, ligand NKA (by identity with Fig 5b values)
T2 construct: host or cells: COS7
T2 sequence (P25103 whole entry): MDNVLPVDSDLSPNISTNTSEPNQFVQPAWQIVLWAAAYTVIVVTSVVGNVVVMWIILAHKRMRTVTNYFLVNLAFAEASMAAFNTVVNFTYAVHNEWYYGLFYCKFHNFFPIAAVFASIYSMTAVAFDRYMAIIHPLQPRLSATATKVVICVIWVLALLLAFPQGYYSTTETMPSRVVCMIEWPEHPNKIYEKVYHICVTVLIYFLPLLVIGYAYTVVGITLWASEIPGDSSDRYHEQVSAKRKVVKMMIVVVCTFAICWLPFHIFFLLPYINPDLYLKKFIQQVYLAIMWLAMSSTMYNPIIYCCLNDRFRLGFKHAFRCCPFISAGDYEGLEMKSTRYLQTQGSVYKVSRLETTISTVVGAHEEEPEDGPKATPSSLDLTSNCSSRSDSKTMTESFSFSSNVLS
Experimental: (§2) COS7 cells (derived from African green monkey kidney fibroblast and originally bought from ThermoFisher) were maintained in Dulbecco´s Modified Eagle´s Medium 1885 with GlutaMAX supplemented with 10% fetal bovine serum (Sigma-Aldrich), 100 units/ml penicillin and 100 μg/ml streptomycin at 37 °C with 10% CO2. COS7 cells were plated in either clear-, white-, or white with clear bottom 96-well plates that were coated with poly-D-lysine (Sigma-Aldrich) 30 min prior to cell seeding (20.000 cells/well). The following day plates were transiently transfected using calcium precipitation with 200 ng/well DNA in a culture medium with the addition of 100 μM (final concentration) Chloroquine. Transfection was stopped 5 h later with the addition of a fresh maintenance medium. Fig. […] The intracellular level of cAMP was monitored in real-time using bioluminescence resonance energy transfer (BRET). This was achieved by implementing a construct consisting of a cAMP binding protein (Exchange protein activated by cAMP (Epac)) which has been flanked by a BRET pair consisting of Renilla luciferase (Rluc) and yellow fluorescent protein (YFP). […] The BRET signal was calculated as the ratio of emission intensity at 535 nm (citrine) to the emission intensity at 475 nm (luciferase). […] All dose-response curves have been calculated using Prism 10 software (GraphPad Software) non-linear regression with four parameters. […]

NK1R-R177K = target: T3, NK1R-R177K (Homo sapiens, UniProt P25103, R177K); test: BRET-based cAMP assay, NK1R-R177K; type: cell-based; settings: COS-7
T3 construct: host or cells: COS7
T3 sequence (P25103 whole entry R177K): as the sequence (P25103 whole entry) above, with R177K counted along it
Experimental: as §2

NK1R [3] = target: T2, NK1R; test: IP3 (IP accumulation) assay, wildtype NK1R; type: cell-based
Experimental: as §1, with “Ligand addition was followed by 150 min incubation at 37 °C. To stop ligand incubation, cells were lysed with 40 μl 10 mM formic acid followed by 30 min incubation on ice. 35 μl of the lysate was transferred to white 96-well plates together with 60 μl of 1:8 diluted YSi SPA scintillation beads (PerkinElmer). Plates were sealed and vigorously shaken for 15 min followed by 5 min centrifugation at 1500 rpm.” left out, “All data are shown as mean ± SEM unless stated otherwise and consist of two technical replicates from three biological replicates.” left out

NK1R-R177Q [4] = target: T4, NK1R-R177Q (Homo sapiens, UniProt P25103, R177Q); test: BRET-based cAMP assay, NK1R-R177Q; type: cell-based; settings: COS-7
T4 construct: host or cells: COS7
T4 sequence (P25103 whole entry R177Q): as the sequence (P25103 whole entry) above, with R177Q counted along it
Experimental: as §2

NK1R-R177Q [5] = target: T4, NK1R-R177Q; test: IP3 activation assay, NK1R-R177Q; type: cell-based; settings: COS-7
Experimental: as §1, with “Ligand addition was followed by 150 min incubation at 37 °C. To stop ligand incubation, cells were lysed with 40 μl 10 mM formic acid followed by 30 min incubation on ice. 35 μl of the lysate was transferred to white 96-well plates together with 60 μl of 1:8 diluted YSi SPA scintillation beads (PerkinElmer). Plates were sealed and vigorously shaken for 15 min followed by 5 min centrifugation at 1500 rpm.” left out, “All data are shown as mean ± SEM unless stated otherwise and consist of two technical replicates from three biological replicates.” left out

NK2R [6] = target: T1, NK2R; settings: ref [19], cited from earlier work
Source text: In sharp contrast, NKA-D4 and NKA6-10 are found to be critical for activity.

| Emax (NK2R [1]) | EC50 (NK2R [1]) [pM] | Compound | further results |
| --- | --- | --- | --- |
| 136 |  | Ala9: NKA variant of the alanine scan, alanine in position 9 (HKTDSFVGAM; ends and bridges not checked; UniProt P20366 98-107, looked up, variant L9A) |  |
|  |  | CSCC[C@H](NC(=O)[C@H](CC(C)C)NC(=O)CNC(=O)[C@@H](NC(=O)[C@H](Cc1ccccc1)NC(=O)[C@H](CO)NC(=O)[C@H](CC(=O)O)NC(=O)[C@@H](NC(=O)[C@H](CCCCN)NC(=O)[C@@H](N)Cc1c[nH]cn1)[C@@H](C)O)C(C)C)C(N)=O [NKA, neurokinin A] | Emax (NK1R [2]): 109%; Emax (NK1R-R177K): 10.7%; Emax (NK1R [3]; COS-7, Fig 7c, IP3 activation assay, NK1R WT, ligand NKA (by identity with Fig 5a values)): 100%; Emax (NK1R [3]; COS-7, Fig 5a, IP3 assay, NK1R WT in COS7 cells): 100%; Emax (NK1R-R177Q [4]): 13.1%; Emax (NK1R-R177Q [5]): 59.3% |
|  | 25900 | HKTDAFVGLM-NH2 [Ala5] |  |
| 1066 |  | Ala4: NKA variant of the alanine scan, alanine in position 4 (Asp) (HKTASFVGLM; ends and bridges not checked; UniProt P20366 98-107, looked up, variant D4A) |  |
|  | 31900 | HKTDSFVGLA-NH2 [Ala10] |  |
| 178 |  | Ala7: NKA variant of the alanine scan, alanine in position 7 (HKTDSFAGLM; ends and bridges not checked; UniProt P20366 98-107, looked up, variant V7A) |  |
|  | 598 | HKADSFVGLM-NH2 [Ala3] |  |
|  | 680 | HATDSFVGLM-NH2 [Ala2] |  |
|  | 715 | CSCC[C@H](NC(=O)[C@H](CC(C)C)NC(=O)CNC(=O)[C@@H](NC(=O)[C@H](Cc1ccccc1)NC(=O)[C@H](CO)NC(=O)[C@H](CC(=O)O)NC(=O)[C@@H](NC(=O)[C@H](CCCCN)NC(=O)[C@H](C)N)[C@@H](C)O)C(C)C)C(N)=O [Ala1] |  |
|  |  | KDSFVGL(γ-lactam)M-NH2 [GR64349] | selectivity (NK2R [6]; NK2R agonist selectivity): most selective NK2R agonist reported so far; agonist character (NK2R [6]): full agonist |
